Experiment [1] has as its system Candida albicans (C. albicans). Description: Antifungal MIC, broth microdilution. Type of experiment: cell-based. (Broth dilution looks for growth in wells or tubes with falling amounts of substance.)
For experiment [2], the system named is Escherichia coli (E. coli). Description: Antimicrobial MIC, broth microdilution. Format: cell-based.

Where only a bound is given, the exact number is not on record here.

A word on the MIC: it is the lowest concentration that inhibits growth of the organism. A lower MIC goes with inhibition by little substance.

`C[C@@H]1C[C@@H]([C@H](O)CC2CC(=O)NC(=O)C2)C(=O)[C@@H](C)C1` [Cycloheximide]: the minimum inhibitory concentration (MIC) in experiment [1] was under 201 µg/mL.

For `CC(=O)OCC1=C(C(=O)O)N2C(=O)[C@@H](NC(=O)Cc3cccs3)[C@H]2SC1` [Cephalothin], the MIC in experiment [2] is under 32 µg/mL.
